Experimental data as given in patent US11370775B2, “Substituted benzimidazole derivatives as D-amino acid oxidase (DAAO) inhibitors” (NATIONAL TAIWAN UNIVERSITY, priority 2016, dated 2022).

Tests used:
Format in all cases: in vivo
[1] = tested on: MK-801-induced hyperlocomotion in C57BL/6 mice; experiment: Open field, MK-801-induced hyperlocomotion
Source text: (§1) The NMDA-receptor antagonist MK-801-induced negative or cognitive deficits in C57BL/6 mice were in a well-established drug-induced schizophrenia mouse model and as a useful pharmacological animal model to identify if the RS-D7, its analog and its prodrug improve the symptoms through the NMDA receptor.
(§2) All wild-type (WT) mice used in this study were backcrossed onto a C57BL/6J background from the Laboratory Animal Center of National Taiwan University Hospital, and all behavioral examinations were conducted in WT mice. For acclimatizing to laboratory conditions, the mice were allowed free access to food and water and were housed in groups with a 12 hours light-dark cycle in a temperature and humidity controlled room of the Psychology Department, National Taiwan University. All animals within the age of 3 months were housed individually one week before experiment testing with food and water available ad libitum. In the beginning of the experiments, the mice were handled and weighted daily at least 1 week before the behavioral experiments. The entire animal procedures were performed according to protocols approved by the Animal Care and Use Committee established by the National Taiwan University.
(§3) MK-801 was dissolved in saline and administered at a volume of 0.01 ml/g body weight. RS-D7, Drug 12083 (analog of RS-D7) and was freshly dissolved in 1% CMC to the concentration of 2 mg/ml before usage. Prodrug 28095 was freshly dissolved in NMP:HP-beta-CD:H2O (5:25:70) to the concentration of 2 mg/ml before usage. All animals were given vehicle (saline) or MK-801 (0.2 mg/kg, i.p.) 25 minutes before the behavioral experiments. Both vehicle (1% CMC or NMP:HP-beta-CD:H2O) and experimental groups (RS-D7, Drug 12083 or Prodrug 28095) were treated after 5 minutes MK-801 administration with the appropriate dose via P.O. injections (at a volume of 0.01 ml/g body weight).
(§4) For investigating the treatment effect of RS-D7 for negative and cognitive symptoms, a series of three behavioral tests (run from the first to the third week), which included open field, sucrose preference test and prepulse inhibition were performed in sequence with a 1-week interval between tests.
To assess spontaneous locomotor activity, each subject was placed into the center of an open-field apparatus (25.40*25.40*40.64 cm^3, Coulbourn Instruments, Whitehall, Pa., USA) under dim lighting condition (60 lx). Motor activity parameters (including total travel distance and travel distance per 10 minutes) were monitored and recorded over a 60 minutes period by using Smart video tracking software (Panlab, Harvard apparatus, US). For comparing the treatment effects of different treatment groups, the percentage change of rescue effect on MK-801-induced hyperlocomotion was calculated using the following formula: %=(rescue effect of drug−MK-801 effect)×100%/MK-801 effect.

[2] = tested on: MK-801-induced anhedonia in C57BL/6 mice; experiment: Sucrose preference test, MK-801-induced anhedonia
Source text: as §1, §2, §3, §4
To assess the anhedonia, one of the negative symptoms of schizophrenia, all mice underwent 4-day testing. In the beginning of the sucrose preference, all mice were deprived of water for 23 hours in all the experiment from one day before the first day. On the first day, each mouse was given free access to 2 identical bottles with water for 1 hour. Then, the 2 identical bottles were replaced that one filled with 1% (wt/vol) sucrose solution and the other with water on the second day. On the third and fourth day, each mouse was received MK-801 and RS-D7 treatment before the experiment, and also free accessed to bottles for 1 hour. After the experiment, the 2 bottles were weighted to measure the 1-hour consumption of sucrose solution and water. The sucrose preference percentage (SPP) was calculated using the following formula: % SPP=sucrose solution consumption (g)×100%/[water consumption (g)+sucrose solution consumption (g)].

[3] = tested on: MK-801-induced PPI deficit in C57BL/6 mice; experiment: Prepulse inhibition, MK-801-induced PPI deficit; conditions: MK-801 0.2 mg/kg i.p.
Source text: as §1, §2, §3, §4
To assess the sensorimotor gating function, each mouse was tested with the SR-LAB startle apparatus (San Diego Instruments, San Diego, Calif., USA). The background noise was 72 dB during testing. Each session was initiated with a 5 minutes acclimatization period followed by 64 trials, consisting of pulse-alone (P-alone) trials, prepulse pulse (pp+P) trials, and no stimulation (nostim) trials. A P-alone trial was a 120 dB white noise burst of 40 msec. In the pp+P trials, the 120 dB pulse was preceded (by 100 msec) by a 20 msec of white noise prepulse burst of 78 dB (PP6), 82 dB (PP10), or 90 dB (PP18). The nostim trials consisted of background noise only. The session began and ended with a block of six presentations of the P-alone trial. Between these two blocks, the rest of the 52 trials were performed pseudorandomly and separated by intertrial intervals of 15 sec on average (varying between 10 and 20 sec). PPI was calculated as a percentage of the startle response using the formula: % PPI=100× [(P-alone score)-(pp+P score)]/(pulse-alone score), where the pulse-alone score was the average of the pulse-alone values from the in-between block of 52 trials.

COc1c(C)cnc(C[S+]([O-])c2nc3cc(OC(=O)CC(C)CC(C)(C)C)ccc3[nH]2)c1C (stereo not drawn) [compound 28095, 2-(((4-methoxy-3,5-dimethylpyridin-2-yl)methyl)sulfinyl)-1H-benzo[d]imidazol-5-yl 3,5,5-trimethylhexanoate]
Effect on MK-801 induced hyperlocomotion (open field) ([1]; 100 mg/kg P.O., MK-801 0.2 mg/kg i.p., mice): alleviated MK-801 induced hyperlocomotion
Effect on MK-801-induced hyperlocomotion (FIG. 1) ([1]; different dosages, compared to the MK-801 group): can rescue the MK-801-induced hyperlocomotion
Effect on MK-801 induced anhedonia (sucrose preference) ([2]; 200 mg/kg P.O., MK-801 0.2 mg/kg i.p., mice): normalized MK-801 induced anhedonia
Effect on anhedonia after acute MK-801 injection (FIG. 2) ([2]; different dosages): rescue the anhedonia after acute MK-801 injection
Effect on MK-801 induced PPI deficit ([3]; 100 mg/kg P.O.): significantly alleviated MK-801 induced PPI deficit
Effect on MK-801 induced PPI deficit ([3]; 200 mg/kg P.O.): significantly alleviated MK-801 induced PPI deficit
